What was measured:
BRD2-BD2 (348–455) = BRD2-BD2 (348–455) (Homo sapiens, UniProt P25440); assay: Isothermal titration calorimetry; format: binding; details: 15 °C, no DMSO in buffer
BRD2-BD1 (74–194) = BRD2-BD1 (74–194) (Homo sapiens, UniProt P25440); assay: Isothermal titration calorimetry; format: binding; details: 15 °C, no DMSO in buffer
BJ cells = assay: Non-specific cytotoxicity, BJ control cell line; format: cell-based; details: control immortalized fibroblast cell line; 3 days exposure
HEK293 cells = assay: Non-specific cytotoxicity, HEK293 control cell line; format: cell-based; details: control embryonic kidney cell line; 3 days exposure
HEPG2 cells = assay: Non-specific cytotoxicity, HEPG2 control cell line; format: cell-based; details: control hepatocarcinoma cell line; 3 days exposure

BRD2-BD1 (74–194), sequence (P25440 74-194): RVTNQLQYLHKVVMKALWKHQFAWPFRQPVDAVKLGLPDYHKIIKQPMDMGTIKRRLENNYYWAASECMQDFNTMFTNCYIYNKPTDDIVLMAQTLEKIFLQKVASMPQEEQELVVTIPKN
BRD2-BD2 (348–455), sequence (P25440 348-455): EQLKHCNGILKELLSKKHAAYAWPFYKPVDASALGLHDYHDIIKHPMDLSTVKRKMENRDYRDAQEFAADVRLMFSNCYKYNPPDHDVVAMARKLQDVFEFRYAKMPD

SMILES	ITC ΔH, BRD2 BD2 (BRD2-BD2 (348–455)) [kcal/mol]	ITC −TΔS, BRD2 BD2 (BRD2-BD2 (348–455)) [kcal/mol]	ITC ΔH, BRD2 BD1 (BRD2-BD1 (74–194)) [kcal/mol]	ITC −TΔS, BRD2 BD1 (BRD2-BD1 (74–194)) [kcal/mol]	ITC ΔG, BRD2 BD2 (BRD2-BD2 (348–455)) [kcal/mol]	ITC ΔG, BRD2 BD1 (BRD2-BD1 (74–194)) [kcal/mol]	Cytotoxicity EC50, BJ (BJ cells)	Cytotoxicity EC50, HEK293 (HEK293 cells)	Cytotoxicity EC50, HEPG2 (HEPG2 cells)
Cc1sc2c(c1C)C(c1ccc(Cl)cc1)=N[C@@H](CC(=O)OC(C)(C)C)c1nnc(C)n1-2 [Compound 1, (+)-JQ1, reference compound]	-1.47	-7.83	-4.9	-4.39					
CC(=O)N1c2ccc(-c3cc[nH]c3)cc2[C@H](NC(=O)OC(C)C)C[C@@H]1C [Compound 14, Isopropyl ((2S,4R)-1-acetyl-2-methyl-6-(1H-pyrrol-3-yl)-1,2,3,4-tetrahydroquinolin-4-yl)carbamate]	-7.01	-3.32	-7.33	-1.95	-10.15	-9.28			
CC(=O)N1c2ccc(-c3ccco3)cc2[C@H](NC(=O)OC(C)C)C[C@@H]1C [Compound 9, Isopropyl ((2S,4R)-1-acetyl-6-(furan-2-yl)-2-methyl-1,2,3,4-tetrahydroquinolin-4-yl)carbamate]			-7.27	-0.2		-7.47	did not exhibit cytotoxicity at the highest concentrations tested	did not exhibit cytotoxicity at the highest concentrations tested	did not exhibit cytotoxicity at the highest concentrations tested
CC(=O)N1c2ccc(-c3cccs3)cc2[C@H](NC(=O)OC(C)C)C[C@@H]1C [Compound 10, Isopropyl ((2S,4R)-1-acetyl-2-methyl-6-(thiophen-2-yl)-1,2,3,4-tetrahydroquinolin-4-yl)carbamate]	-7.18	-2.94	-8.27	-1.25	-10.12	-9.52			
CC(=O)N1c2ccc(-c3ccoc3)cc2[C@H](NC(=O)OC(C)C)C[C@@H]1C [Compound 12, Isopropyl ((2S,4R)-1-acetyl-6-(furan-3-yl)-2-methyl-1,2,3,4-tetrahydroquinolin-4-yl)carbamate]	-6.31	-2.29	-9.9	0.94	-8.61	-8.96			
CC(=O)N1c2ccc(-c3ccc[nH]3)cc2[C@H](NC(=O)OC(C)C)C[C@@H]1C [Compound 11, Isopropyl ((2S,4R)-1-acetyl-2-methyl-6-(1H-pyrrol-2-yl)-1,2,3,4-tetrahydroquinolin-4-yl)carbamate]	-6.89	-2.92	-6.9	-2.18	-9.82	-9.08			
CC(=O)N1c2ccc(-c3ccsc3)cc2[C@H](NC(=O)OC(C)C)C[C@@H]1C [Compound 13, Isopropyl ((2S,4R)-1-acetyl-2-methyl-6-(thiophen-3-yl)-1,2,3,4-tetrahydroquinolin-4-yl)carbamate]	-6.92	-3.33	-7.69	-1.74	-10.25	-9.43			

From publication PMC5733700 (Bioorganic & medicinal chemistry, 2017)
